Results reported in patent US20060246492A1, “Method for predicting responsiveness to drugs” (The General Hospital Corporation, priority 2005, published 2006).
“Also recorded” adds a separate entry of the source.

Experiments:
[1] = test system: GTL-16 gastric carcinoma cells; details: cited from earlier work
NIH3T3 fibroblasts = details: cited from earlier work
MLP-29 cells = details: cited from earlier work
MET = MET (Homo sapiens, UniProt P08581); details: nanomolar concentrations; cited from earlier work
Amp− cells [2] = experiment: Growth curve (SYTO60 staining); type: cell-based, human; details: 1 μM, up to 6 days
[3] = test system: platelet-derived growth factor receptor; details: cited from earlier work
MKN45 [4] = experiment: Drug-sensitivity screen of 40 human cancer cell lines (DNA staining, 3 days); type: cell-based; details: MKN45 gastric cancer cell line
Protocol: (§1) Cells were cultured and analyzed in triplicate within microtiter plates. Cell numbers were quantitated by DNA staining, 3 days after addition of various concentrations of drugs and expressed as a fraction of matched untreated cultures. For each drug concentration, cell lines with relative drug sensitivity (<50% of untreated control growth) are shown in darkest staining, intermediate sensitivity (50-75%) in […], and drug insensitivity (>75%) in intermediate shading.
(§2) Cellular Proliferation and Viability Assays. […] For quantitation of cellular proliferation, cells were fixed at appropriate time points in 4% paraformaldehyde, and all plates were stained simultaneously by using the fluorescent nucleic acid stain SYTO60 (Molecular Probes) at 1:8,000 dilution in PBS. Quantitation was done by measuring the […] at 700 nm by using the Odyssey Imaging System (LI-COR, Lincoln, Nebr.). The relative cell number was obtained by normalizing treated samples to matched untreated specimens. For quantitation of cell viability, cultures were stained after 4 days by using the MTT assay. Briefly, 10 μl of 5 mg/ml MTT (Thiazolyl blue) solution was added to each well and incubated for 2 h at 37° C. For adherent cell lines, the media was removed from each well, and the resultant MTT formazan was solubilized in 100 μl of DMSO. For nonadherent cell lines, the MTT formazan was solubilized by direct addition of 100 μl of acidic isopropanol (0.1 N HCl) to each well. The results were quantitated spectrophotometrically by using a test wavelength of 570 nm and a reference wavelength of 630 nm.

Amp− cells [5] = experiment: Apoptosis induction assay (cleaved caspase-3, PARP cleavage); type: cell-based, human; details: 72 h, identical conditions
Protocol: (§3) Cells are costained with DAPI to show nuclei.
(§4) Cells were plated on coverslips in 12-well dishes and grown to approximately 75% confluency in 10% serum. […] After 72 h the cells were fixed with 4% paraformaldehyde for 20 minutes. Permeabilization with 1% NP40 for 5 minutes was followed by blocking with 3% BSA for 30 minutes. The coverslips were then incubated overnight at 4° C. with cleaved caspase-3 antibody at 1:200 dilution. The next day, the coverslips were washed 3 times with PBS and incubated with a secondary antibody (goat anti-rabbit FITC-conjugated) for 1 h at 1:250 dilution. Following 5 washes with PBS, coverslips were mounted in Vectashield mounting medium containing DAPI (Vector Laboratories; Burlingame, Calif.).
(§5) Apoptosis Induction Assay. […] After 72 h, cells were fixed with 4% paraformaldehyde for 20 min, permeabilized by using 1% Nonidet P-40 for 5 min, and blocked with 3% BSA for 30 min. The coverslips were then incubated overnight at 4° C. with cleaved caspase-3 antibody at 1:200 dilution. The next day, the coverslips were washed three times with PBS and incubated with a secondary antibody (goat anti-rabbit FITC-conjugated) for 1 h at 1:250 dilution. After five washes with PBS, coverslips were mounted in Vectashield mounting medium containing DAPI (Vector Laboratories), and staining was visualized by fluorescent microscopy.

Amp+ cells [6] = experiment: as above; type: cell-based, human; details: 72 h, 1 μM (caspase-3), 500 nM (PARP)
Protocol: as §3, §4, §5

[7] = test system: MET autophosphorylation (Y1234/1235) in Amp+ cells; experiment: Immunoblotting of MET autophosphorylation; type: cell-based, human; details: 3 h, 50 nM
Amp− cells [8] = experiment: Viability of gastric cancer cell lines without MET amplification (MTT); type: cell-based, human; details: 12 of 12 Amp− gastric cancer cell lines; 96 h
[9] = test system: ERK1/2, AKT, STAT3, and FAK in Amp+ cells; experiment: Immunoblotting of downstream effector phosphorylation; type: cell-based, human; details: 3 h, 50 nM
Protocol: (§6) FIG. 3: Constitutive activation of MET and activation of downstream signaling pathways in Amp^+ cells. (FIG. 3A) MET is constitutively activated in the Amp^+ cells. […] (FIG. 3B) Effect of HGF on MET activation in Amp^+ and Amp^− cells (representative immunoblots). Cells were serum-starved for 24 h and treated with 40 ng/ml HGF for 10 minutes. Phosphorylation of MET (Y1234/1235) is unaltered in Amp^+ cells treated with HGF, but it is induced by HGF in Amp^− cells (total MET control).
as §3
(§7) Cells were either directly lysated in 2× sample buffer or in RIPA buffer (150 mM NaCl, 50 mM Tris pH 8.0, 1% NP40, 0.5% DOC, 0.1% SDS, 1 mM EDTA, 10 mM NaF, 1 mM Na-orthovanadate, 1× protease inhibitor cocktail (Roche; Indianapolis, Ind.)). Cell lysates were sonicated for 10 sec and cleared by centrifugation at 14,000 rpm for 10 min at 4° C. Cleared lysates were boiled in sample buffer and loaded onto 10% SDS-PAGE gel. For immunoblotting analysis, proteins were transferred onto Immobilon PVDF membrane (Millipore; Bedford, Mass.) and visualized with Western Lightning Plus chemiluminescence kit (Perkin Elmer; Boston, Mass.).

[10] = test system: ERK1/2, AKT, STAT3, or FAK in Amp− cells; experiment: as above; type: cell-based, human; details: 3 h
Protocol: as §6, §3, §7

HSC39 = experiment: MTT viability assay, gastric cancer cell line; type: cell-based; details: Homo sapiens, 96 h
Protocol: (§8) Cells were plated in 96-well plate in medium containing 4% fetal bovine serum at approximately 4000 cells/well. […] Cell viability was measured 96 h later using the MTT assay. Briefly, 10 ul of 5 mg/ml MTT (Thiazolyl blue) solution was added to each well and incubated for about 2 hours at 37° C. For adherent cell lines, the media was removed from each well and the resultant MTT formazan was solubilized in 100 ul of DMSO. For suspension cell lines, the MMT formazan was solubilized by direct addition of 100 ul of acidic isopropanol (0.1N HCl) to each well. The results were quantitated spectrophotometrically using a test wavelength of 570 nm and a reference wavelength of 630 nm.
as §2

N87 = experiment: MTT viability assay, gastric cancer cell line; type: cell-based; details: Homo sapiens, 96 h
Protocol: as §8, §2

TMK-1 = experiment: MTT viability assay, gastric cancer cell line; type: cell-based; details: Homo sapiens, TMK-1, 96 h
Protocol: as §8, §2

KATO III = experiment: MTT viability assay, gastric cancer cell line; type: cell-based; details: Homo sapiens, 96 h
Protocol: as §8, §2

MKN1 = experiment: MTT viability assay, gastric cancer cell line; type: cell-based; details: Homo sapiens, MKN-1, 96 h
Protocol: as §8, §2

MKN45 [11] = experiment: MTT viability assay, gastric cancer cell line; type: cell-based; details: Homo sapiens, MKN-45, 96 h
Protocol: as §8, §2

Hs738T = experiment: MTT viability assay, gastric cancer cell line; type: cell-based; details: Homo sapiens, 96 h
Protocol: as §8, §2

SNU-16 = experiment: MTT viability assay, gastric cancer cell line; type: cell-based; details: Homo sapiens, SNU-16, 96 h
Protocol: as §8, §2

SNU-5 = experiment: MTT viability assay, gastric cancer cell line; type: cell-based; details: Homo sapiens, SNU-5, 96 h
Protocol: as §8, §2

MKN7 = experiment: MTT viability assay, gastric cancer cell line; type: cell-based; details: Homo sapiens, MKN-7, 96 h
Protocol: as §8, §2

Hs746T = experiment: MTT viability assay, gastric cancer cell line; type: cell-based; details: Homo sapiens, 96 h
Protocol: as §8, §2

MKN74 = experiment: MTT viability assay, gastric cancer cell line; type: cell-based; details: Homo sapiens, MKN-74, 96 h
Protocol: as §8, §2

SNU-1 = experiment: MTT viability assay, gastric cancer cell line; type: cell-based; details: Homo sapiens, SNU1, 96 h
Protocol: as §8, §2

MKN28 = experiment: MTT viability assay, gastric cancer cell line; type: cell-based; details: Homo sapiens, MKN-28, 96 h
Protocol: as §8, §2

GTL16 = experiment: MTT viability assay, gastric cancer cell line; type: cell-based; details: Homo sapiens, GTL 16, 96 h
Protocol: as §8, §2

KATO II = experiment: MTT viability assay, gastric cancer cell line; type: cell-based; details: Homo sapiens, 96 h
Protocol: as §8, §2

AGS = experiment: MTT viability assay, gastric cancer cell line; type: cell-based; details: Homo sapiens, 96 h
Protocol: as §8, §2

Amp+ cells [12] = experiment: Viability of gastric cancer cell lines with MET amplification (MTT); type: cell-based, human; details: 5 of 5 Amp+ gastric cancer cell lines; 96 h
Amp+ cells [13] = experiment: Growth curve (SYTO60 staining); type: cell-based, human; details: 1 μM, up to 6 days
NCI-H1650 = experiment: Drug-sensitivity screen of 40 human cancer cell lines (DNA staining, 3 days); type: cell-based; details: NCI-H1650 (EGFR del E746-A750), tested 100 nM to 10 μM
Protocol: as §1, §2

NCI-H1975 = experiment: as above; type: cell-based; details: NCI-H1975 (EGFR L858R and T790M)
Protocol: as §1, §2

MET, sequence (P08581 25-1390): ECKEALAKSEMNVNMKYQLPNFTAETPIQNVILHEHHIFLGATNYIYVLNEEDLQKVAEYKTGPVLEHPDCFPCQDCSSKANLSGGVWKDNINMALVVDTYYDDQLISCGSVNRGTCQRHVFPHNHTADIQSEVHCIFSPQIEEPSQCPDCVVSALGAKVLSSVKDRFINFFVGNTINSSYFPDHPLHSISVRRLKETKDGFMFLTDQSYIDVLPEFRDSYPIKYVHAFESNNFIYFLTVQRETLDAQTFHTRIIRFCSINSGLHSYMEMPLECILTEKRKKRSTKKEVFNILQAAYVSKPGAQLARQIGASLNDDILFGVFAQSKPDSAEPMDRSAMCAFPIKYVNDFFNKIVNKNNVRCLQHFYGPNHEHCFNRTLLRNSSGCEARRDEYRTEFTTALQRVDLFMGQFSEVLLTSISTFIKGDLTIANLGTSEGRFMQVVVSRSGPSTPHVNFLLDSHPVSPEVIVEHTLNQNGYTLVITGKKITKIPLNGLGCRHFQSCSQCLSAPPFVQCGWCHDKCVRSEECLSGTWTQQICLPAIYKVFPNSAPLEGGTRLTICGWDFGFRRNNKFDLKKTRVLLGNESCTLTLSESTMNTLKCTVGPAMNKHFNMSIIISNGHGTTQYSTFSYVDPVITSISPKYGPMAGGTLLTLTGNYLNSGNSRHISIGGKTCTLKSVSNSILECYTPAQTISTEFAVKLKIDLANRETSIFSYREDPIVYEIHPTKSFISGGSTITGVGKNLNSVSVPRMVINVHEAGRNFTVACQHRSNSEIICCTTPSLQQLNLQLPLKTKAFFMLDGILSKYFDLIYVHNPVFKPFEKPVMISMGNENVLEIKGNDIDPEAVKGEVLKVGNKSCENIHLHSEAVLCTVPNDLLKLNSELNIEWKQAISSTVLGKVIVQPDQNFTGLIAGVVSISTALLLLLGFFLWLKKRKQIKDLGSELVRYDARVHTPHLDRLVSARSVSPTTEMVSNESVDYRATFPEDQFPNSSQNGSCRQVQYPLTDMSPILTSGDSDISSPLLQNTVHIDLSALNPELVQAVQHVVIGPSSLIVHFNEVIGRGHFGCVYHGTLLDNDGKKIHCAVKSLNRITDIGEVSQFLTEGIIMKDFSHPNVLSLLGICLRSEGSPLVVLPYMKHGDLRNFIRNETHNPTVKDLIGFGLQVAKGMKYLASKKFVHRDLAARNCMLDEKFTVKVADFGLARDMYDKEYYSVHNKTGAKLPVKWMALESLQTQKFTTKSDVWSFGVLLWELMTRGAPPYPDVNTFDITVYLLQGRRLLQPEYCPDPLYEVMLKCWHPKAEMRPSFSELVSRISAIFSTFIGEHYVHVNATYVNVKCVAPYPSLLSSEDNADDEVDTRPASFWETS

SMILES: COC(=O)[C@@]1(O)C[C@H]2O[C@]1(C)n1c3ccccc3c3c4c(c5c6ccccc6n2c5c31)C(=O)NC4 [K252a]
- Met-driven proliferation [1]: reduces Met-driven proliferation
- Met mediated transformation (NIH3T3 fibroblasts): reverses Met mediated transformation
- HGF-mediated scattering (MLP-29 cells): prevents HGF-mediated scattering
- Met autophosphorylation (MET): inhibits Met autophosphorylation

SMILES: Cc1[nH]c(/C=C2\C(=O)Nc3ccc(S(=O)(=O)Cc4c(Cl)cccc4Cl)cc32)c(C)c1C(=O)N1CCC[C@@H]1CN1CCCC1 [PHA-665752, (3Z)-5-[(2,6-dichlorobenzyl)sulfonyl]-3-[(3,5-dimethyl-4-{[(2R)-2-(pyrrolidin-1-ylmethyl)pyrrolidin-1-yl]carbonyl}-1H-pyrrol-2-yl)methylene]-1,3-dihydro-2H-indol-2-one]
- effect on proliferation rate as a function of time (Amp− cells [2]): unaffected
- IC50 [3]: > 10 µM
- Extreme sensitivity (drug concentration) (MKN45 [4]): 100 nM
- induction of apoptosis (Amp− cells [5]): not in Amp− cells
- induction of apoptosis (Amp+ cells [6]): induction of apoptosis; also recorded: demonstrated apoptosis
- constitutive MET autophosphorylation [7]: effectively suppressed the constitutive MET autophosphorylation
- effect on number of viable cells / proliferation (Amp− cells [8]): resistant; also recorded: no effect
- baseline phosphorylation of downstream effectors ERK1/2, AKT, STAT3, FAK [9]: effectively abrogated the baseline phosphorylation
- baseline phosphorylation of ERK1/2, AKT, STAT3, FAK [10]: no effect on baseline phosphorylation
- viability at 0.5 µM (HSC39): 92.8 ± 2.1%
- viability at 0.5 µM (N87): 86 ± 7.4%
- viability at 0.5 µM (TMK-1): 91.3 ± 2.1%
- viability at 0.5 µM (KATO III): 105 ± 9.5%
- viability at 0.5 µM (MKN1): 87.5 ± 4%
- viability at 0.5 µM (MKN45 [11]): 5.8 ± 0.5%
- viability at 0.5 µM (Hs738T): 100 ± 12.3%
- viability at 0.5 µM (SNU-16): 99.9 ± 1.5%
- viability at 0.5 µM (SNU-5): 4 ± 0.2%
- viability at 0.5 µM (MKN7): 118 ± 21.1%
- viability at 0.5 µM (Hs746T): 38.4 ± 1.2%
- viability at 0.5 µM (MKN74): 89.6 ± 2.6%
- viability at 0.5 µM (SNU-1): 101 ± 3.2%
- viability at 0.5 µM (MKN28): 104 ± 4.2%
- viability at 0.5 µM (GTL16): 12.8 ± 1.2%
- viability at 0.5 µM (KATO II): 3.2 ± 0.3%
- viability at 0.5 µM (AGS): 99.8 ± 1.9%
- effect on number of viable cells (Amp+ cells [12]): dramatic decrease in the number of viable cells; also recorded: dramatic reduction in cell numbers
- effect on proliferation as a function of time (Amp+ cells [13]): initial arrest in proliferation, followed by cell death

SMILES: COc1cc2ncnc(Nc3ccc(F)c(Cl)c3)c2cc1OCCCN1CCOCC1 [gefitinib]
- Extreme sensitivity (drug concentration) (NCI-H1650): 100 nM
- drug sensitivity (NCI-H1975): relatively resistant
